Test results published in publication PMC3479967 (Evidence-based Complementary and Alternative Medicine : eCAM, 2012).
Read-outs that look alike come from different tables or passages of the source.

Assays:
[1] = biological target: T1, UGT1A4 (Homo sapiens, UniProt P22310); assay: Inhibition of recombinant UGT1A4 activity (TFP glucuronidation); format: biochemical
T1 construct: purchased BD Gentest Corp. (Woburn, MA, USA); host or cells: baculovirus-infected insect cells
T1 sequence (P22310 29-534): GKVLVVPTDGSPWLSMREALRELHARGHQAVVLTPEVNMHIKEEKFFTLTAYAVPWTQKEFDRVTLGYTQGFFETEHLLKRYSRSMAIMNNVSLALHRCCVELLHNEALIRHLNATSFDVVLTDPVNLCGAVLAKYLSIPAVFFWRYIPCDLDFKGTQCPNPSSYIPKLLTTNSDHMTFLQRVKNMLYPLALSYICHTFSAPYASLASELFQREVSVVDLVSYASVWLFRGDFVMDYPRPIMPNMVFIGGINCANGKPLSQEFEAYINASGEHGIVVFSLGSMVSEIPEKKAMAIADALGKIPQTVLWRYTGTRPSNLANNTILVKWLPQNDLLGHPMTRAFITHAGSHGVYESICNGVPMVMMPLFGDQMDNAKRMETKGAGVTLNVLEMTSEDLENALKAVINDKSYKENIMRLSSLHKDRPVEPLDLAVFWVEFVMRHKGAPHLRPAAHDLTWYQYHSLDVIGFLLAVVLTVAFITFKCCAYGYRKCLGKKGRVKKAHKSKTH
Procedure: TFP was used as the substrate for UGT1A4. Trifluoperazine glucuronide (TFPG) formation was measured using a modification of the method reported. […] Reactions were initiated by the addition of UDPGA and incubations were performed at 37°C in a shaking water bath for 20 min. Incubations were terminated by the addition of 4% acetic acid/96% methanol (0.2 mL) and then centrifuged at 20,500 ×g for 15 min. A 40 μL aliquot of the supernatant fraction was injected into the HPLC column. […] A gradient mobile phase consisting initially of 30 : 70, mobile phase A (acetonitrile) verse mobile phase B (0.5% formic acid/water) was brought to a composition of 90 : 10 in 10 min which was held for 7 min, all at a flow rate of 1 mL/min. Column eluant was monitored by UV absorbance 256 nm. […] The negative controls are the incubation without UDPGA.

[2] = biological target: T2, UGT1A3 (Homo sapiens, UniProt P35503); assay: Inhibition of recombinant UGT1A3 activity (4-MU glucuronidation)
T2 sequence (P35503 29-534): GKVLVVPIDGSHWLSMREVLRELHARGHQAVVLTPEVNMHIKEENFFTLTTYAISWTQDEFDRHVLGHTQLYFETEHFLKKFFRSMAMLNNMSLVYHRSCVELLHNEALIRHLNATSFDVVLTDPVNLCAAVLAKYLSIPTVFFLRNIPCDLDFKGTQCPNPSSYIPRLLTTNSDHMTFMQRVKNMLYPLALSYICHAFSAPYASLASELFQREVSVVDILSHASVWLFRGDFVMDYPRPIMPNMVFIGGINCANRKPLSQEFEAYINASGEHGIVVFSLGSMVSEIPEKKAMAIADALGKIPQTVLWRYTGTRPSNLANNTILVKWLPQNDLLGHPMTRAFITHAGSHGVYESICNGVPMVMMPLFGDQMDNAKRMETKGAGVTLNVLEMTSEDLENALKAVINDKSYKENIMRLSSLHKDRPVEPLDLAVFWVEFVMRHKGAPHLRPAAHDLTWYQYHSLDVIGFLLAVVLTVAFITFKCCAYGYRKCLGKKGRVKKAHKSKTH
Procedure: A panel of recombinant human UGT supersomes (UGT1A1, UGT1A3, UGT1A4, UGT1A6, UGT1A7, UGT1A8, UGT1A9, UGT1A10, UGT2B4, UGT2B7, UGT2B15, and UGT2B17) expressed in baculovirus-infected insect cells were purchased from BD Gentest Corp. (Woburn, MA, USA).
4-MU, a nonselective substrate of UGTs, was used as probe substrate for all UGTs except UGT1A4. Incubations with each individual enzyme were conducted using conditions previously described. There was a 5 min preincubation step at 37°C before the reaction was started by addition of UDPGA. The incubation mixtures were then centrifuged at 20,500 ×g for 15 min to obtain the supernatant. Aliquots (20 μL) were then analyzed by HPLC. The HPLC system (SHIMADZU, Kyoto, Japan) consisted of an SCL-10A system controller, two LC-10AT pumps, a SIL-10A auto injector, and a SPD-10AVP UV detector. […] The mobile phase consisted of 10 mM KH2PO4, pH 2.7 (A) and acetonitrile (B). The following gradient was applied at a flow rate of 1 mL/min: 0–4 min 80% A and 20% B, 4.1–8 min 50% A and 50% B, 8.1–12 min, 30% A and 70% B. All experiments were performed in two independent experiments in duplicate.
A typical incubation mixture contained recombinant human UGTs, 5 mM MgCl2, 5 mM UDPGA, 50 μg/mg protein alamethicin, 50 mM Tris-HCl buffer (pH 7.4), and various probe substrates of UGTs in the absence or presence of different concentrations of inhibitors. […] The final concentration of DMSO in the incubation system was 1% (v/v). […] Known UGT inhibitors were used as positive controls: diclofenac for UGT1A1, UGT1A6, UGT1A7, and UGT1A9; androsterone for UGT1A3, UGT2B7, and UGT2B15, phenylbutazone for UGT1A8 and UGT1A10, and hecogenin for UGT1A4, respectively. There is no positive control reported available for UGT2B4 and UGT2B17. The negative controls are the incubation without UDPGA. […] The final concentration of DMSO in the incubation system was 1% (v/v). […] There was a 5 min preincubation step at 37°C before the reaction was started by the addition of UDPGA. Incubation times were 120 min for UGT1A1, UGT1A10, UGT2B4, UGT2B15, and UGT2B17, 75 min for UGT1A3, and 30 min for UGT1A4, UGT1A6, UGT1A7, UGT1A8, and UGT1A9. The reactions were quenched by adding 100 μL acetonitrile and internal standard. The incubation mixtures were then centrifuged at 20,500 ×g for 15 min to obtain the supernatant. An aliquot of the supernatant was used for HPLC analysis as described above. All experiments were performed in two independent experiments in duplicate.
Inhibition data from experiments were graphically represented by Dixon plots. K i values were calculated by nonlinear regression using the equations for competitive inhibition (1), noncompetitive inhibition (2), or mixed inhibition (3), [22] […] The type of inhibition was determined from the enzyme inhibition models. […]

[3] = recombinant human UGT1A4, 50 μM TFP, mean ± SD, read-out: IC50 for inhibition of UGT1A4 activity

SMILES | IC50 [1, 3] | IC50 [2] | Ki [2] | IC50 [1]
COc1ccc(-c2oc3c(CC=C(C)C)c(O[C@@H]4O[C@H](CO)[C@@H](O)[C@H](O)[C@H]4O)cc(O)c3c(=O)c2O[C@@H]2O[C@@H](C)[C@H](O)[C@@H](O)[C@H]2O)cc1 [Icariin] | 42.8 ± 2.4 µM | 12.4 ± 0.1 µM | 8 ± 1.4 µM | 
COc1ccc(-c2oc3c(CC=C(C)C)c(O[C@@H]4O[C@H](CO)[C@@H](O)[C@H](O)[C@H]4O)cc(O)c3c(=O)c2O)cc1 [Icariside I] | > 100 µM | > 100 µM |  | 
COc1ccc(-c2oc3c(CC=C(C)C)c(O)cc(O)c3c(=O)c2O)cc1 [Icaritin] |  | > 100 µM |  | > 100 µM
